According to the NIST ThermoML archive (doi:10.1016/j.jct.2015.07.028):
± gives the expanded uncertainty stated by the source.

Tests used:
[1] = for molar entropy: 101.33 kPa, Small (less than 1 g) adiabatic calorimetry; for vapor or sublimation pressure: Closed cell (Static) method; for Triple point temperature: Adiabatic calorimetry
[2] = Molar enthalpy of transition or fusion; details: Adiabatic calorimetry

## C=CC(C)(C)O [2-methyl-3-buten-2-ol]
[1]; 5 K, Crystal 2
  molar entropy: 0.1073 ± 0.025 J/K/mol
[1]; 10 K, Crystal 2
  molar entropy: 0.901 ± 0.045 J/K/mol
[1]; 15 K, Crystal 2
  molar entropy: 2.701 ± 0.082 J/K/mol
[1]; 20 K, Crystal 2
  molar entropy: 5.385 ± 0.13 J/K/mol
[1]; 25 K, Crystal 2
  molar entropy: 8.631 ± 0.16 J/K/mol
[1]; 30 K, Crystal 2
  molar entropy: 12.21 ± 0.22 J/K/mol
[1]; 35 K, Crystal 2
  molar entropy: 15.96 ± 0.25 J/K/mol
[1]; 40 K, Crystal 2
  molar entropy: 19.77 ± 0.28 J/K/mol
[1]; 45 K, Crystal 2
  molar entropy: 23.58 ± 0.31 J/K/mol
[1]; 50 K, Crystal 2
  molar entropy: 27.38 ± 0.34 J/K/mol
[1]; 60 K, Crystal 2
  molar entropy: 34.85 ± 0.4 J/K/mol
[1]; 70 K, Crystal 2
  molar entropy: 42.16 ± 0.46 J/K/mol
[1]; 80 K, Crystal 2
  molar entropy: 49.35 ± 0.51 J/K/mol
[1]; 88.1 K, Crystal 1
  molar entropy: 57.03 ± 0.58 J/K/mol
[1]; 88.1 K, Crystal 2
  molar entropy: 55.1 ± 0.56 J/K/mol
[1]; 90 K, Crystal 1
  molar entropy: 58.35 ± 0.61 J/K/mol
[1]; 100 K, Crystal 1
  molar entropy: 65.19 ± 0.66 J/K/mol
[1]; 110 K, Crystal 1
  molar entropy: 71.91 ± 0.72 J/K/mol
[1]; 120 K, Crystal 1
  molar entropy: 78.52 ± 0.77 J/K/mol
[1]; 130 K, Crystal 1
  molar entropy: 85.1 ± 0.81 J/K/mol
[1]; 140 K, Crystal 1
  molar entropy: 91.7 ± 0.86 J/K/mol
[1]; 150 K, Crystal 1
  molar entropy: 98.37 ± 0.9 J/K/mol
[1]; 160 K, Crystal 1
  molar entropy: 105.2 ± 1 J/K/mol
[1]; 170 K, Crystal 1
  molar entropy: 112.2 ± 1 J/K/mol
[1]; 180 K, Crystal 1
  molar entropy: 119.4 ± 1 J/K/mol
[1]; 190 K, Crystal 1
  molar entropy: 126.8 ± 1.1 J/K/mol
[1]; 200 K, Crystal 1
  molar entropy: 134.3 ± 1.2 J/K/mol
[1]; 210 K, Crystal 1
  molar entropy: 141.9 ± 1.2 J/K/mol
[1]; 220 K, Crystal 1
  molar entropy: 149.7 ± 1.2 J/K/mol
[1]; 230 K, Crystal 1
  molar entropy: 157.5 ± 1.4 J/K/mol
[1]; 240 K, Crystal 1
  molar entropy: 165.4 ± 1.4 J/K/mol
[1]; 245.03 K, Crystal 1
  molar entropy: 169.4 ± 1.4 J/K/mol
[1]; 245.03 K, Liquid
  molar entropy: 190.6 ± 1.6 J/K/mol
[1]; 250 K, Liquid
  molar entropy: 194.6 ± 1.6 J/K/mol
[1]; 260 K, Liquid
  molar entropy: 202.4 ± 1.7 J/K/mol
[1]; 270 K, Liquid
  molar entropy: 210.3 ± 1.7 J/K/mol
[1]; 273.15 K, Liquid
  molar entropy: 212.8 ± 1.8 J/K/mol
[1]; 279.12 K, Liquid
  vapor or sublimation pressure: 0.7477 ± 0.012 kPa
[1]; 279.82 K, Liquid
  vapor or sublimation pressure: 0.7934 ± 0.012 kPa
[1]; 280 K, Liquid
  molar entropy: 218.2 ± 1.8 J/K/mol
[1]; 280.58 K, Liquid
  vapor or sublimation pressure: 0.8399 ± 0.012 kPa
[1]; 280.94 K, Liquid
  vapor or sublimation pressure: 0.8608 ± 0.013 kPa
[1]; 281.64 K, Liquid
  vapor or sublimation pressure: 0.9104 ± 0.014 kPa
[1]; 283.31 K, Liquid
  vapor or sublimation pressure: 1.026 ± 0.015 kPa
[1]; 283.94 K, Liquid
  vapor or sublimation pressure: 1.075 ± 0.016 kPa
[1]; 285.82 K, Liquid
  vapor or sublimation pressure: 1.23 ± 0.02 kPa
[1]; 286.31 K, Liquid
  vapor or sublimation pressure: 1.271 ± 0.021 kPa
[1]; 288.03 K, Liquid
  vapor or sublimation pressure: 1.447 ± 0.021 kPa
[1]; 288.63 K, Liquid
  vapor or sublimation pressure: 1.504 ± 0.021 kPa
[1]; 290 K, Liquid
  molar entropy: 226.1 ± 1.8 J/K/mol
[1]; 291.06 K, Liquid
  vapor or sublimation pressure: 1.787 ± 0.024 kPa
[1]; 291.09 K, Liquid
  vapor or sublimation pressure: 1.78 ± 0.024 kPa
[1]; 293.17 K, Liquid
  vapor or sublimation pressure: 2.061 ± 0.026 kPa
[1]; 293.35 K, Liquid
  vapor or sublimation pressure: 2.084 ± 0.026 kPa
[1]; 295.88 K, Liquid
  vapor or sublimation pressure: 2.467 ± 0.032 kPa
[1]; 295.92 K, Liquid
  vapor or sublimation pressure: 2.466 ± 0.032 kPa
[1]; 298.02 K, Liquid
  vapor or sublimation pressure: 2.863 ± 0.036 kPa
[1]; 298.15 K, Liquid
  molar entropy: 232.6 ± 1.9 J/K/mol
[1]; 298.84 K, Liquid
  vapor or sublimation pressure: 2.995 ± 0.038 kPa
[1]; 300 K, Liquid
  molar entropy: 234.1 ± 1.9 J/K/mol
[1]; 301.36 K, Liquid
  vapor or sublimation pressure: 3.534 ± 0.044 kPa
[1]; 301.37 K, Liquid
  vapor or sublimation pressure: 3.532 ± 0.044 kPa
[1]; 303.03 K, Liquid
  vapor or sublimation pressure: 3.938 ± 0.045 kPa
[1]; 303.4 K, Liquid
  vapor or sublimation pressure: 4.006 ± 0.046 kPa
[1]; 306.13 K, Liquid
  vapor or sublimation pressure: 4.784 ± 0.057 kPa
[1]; 306.16 K, Liquid
  vapor or sublimation pressure: 4.776 ± 0.057 kPa
[1]; 307.86 K, Liquid
  vapor or sublimation pressure: 5.284 ± 0.067 kPa
[1]; 308.18 K, Liquid
  vapor or sublimation pressure: 5.405 ± 0.068 kPa
[1]; 310 K, Liquid
  molar entropy: 242 ± 1.9 J/K/mol
[1]; 311.01 K, Liquid
  vapor or sublimation pressure: 6.393 ± 0.075 kPa
[1]; 311.02 K, Liquid
  vapor or sublimation pressure: 6.405 ± 0.075 kPa
[1]; 312.7 K, Liquid
  vapor or sublimation pressure: 7.049 ± 0.082 kPa
[1]; 313.18 K, Liquid
  vapor or sublimation pressure: 7.252 ± 0.086 kPa
[1]; 313.25 K, Liquid
  vapor or sublimation pressure: 7.27 ± 0.085 kPa
[1]; 315.8 K, Liquid
  vapor or sublimation pressure: 8.467 ± 0.087 kPa
[1]; 315.81 K, Liquid
  vapor or sublimation pressure: 8.457 ± 0.088 kPa
[1]; 315.98 K, Liquid
  vapor or sublimation pressure: 8.484 ± 0.088 kPa
[1]; 318.16 K, Liquid
  vapor or sublimation pressure: 9.605 ± 0.11 kPa
[1]; 320 K, Liquid
  molar entropy: 250 ± 2 J/K/mol
[1]; 320.59 K, Liquid
  vapor or sublimation pressure: 11.11 ± 0.11 kPa
[1]; 320.62 K, Liquid
  vapor or sublimation pressure: 11.02 ± 0.12 kPa
[1]; 320.82 K, Liquid
  vapor or sublimation pressure: 11.12 ± 0.12 kPa
[1]; 322.89 K, Liquid
  vapor or sublimation pressure: 12.51 ± 0.15 kPa
[1]; 322.94 K, Liquid
  vapor or sublimation pressure: 12.48 ± 0.14 kPa
[1]; 325.36 K, Liquid
  vapor or sublimation pressure: 14.31 ± 0.15 kPa
[1]; 325.39 K, Liquid
  vapor or sublimation pressure: 14.24 ± 0.16 kPa
[1]; 325.66 K, Liquid
  vapor or sublimation pressure: 14.41 ± 0.16 kPa
[1]; 328.07 K, Liquid
  vapor or sublimation pressure: 16.34 ± 0.18 kPa
[1]; 330 K, Liquid
  molar entropy: 257.9 ± 2.1 J/K/mol
[1]; 340 K, Liquid
  molar entropy: 265.7 ± 2.1 J/K/mol
[1]; 350 K, Liquid
  molar entropy: 273.5 ± 2.1 J/K/mol
[1]; 360 K, Liquid
  molar entropy: 281.1 ± 2.3 J/K/mol
[1]; 370 K, Liquid
  molar entropy: 288.5 ± 2.3 J/K/mol
[1]; Crystal 1
  Triple point temperature: 245.03 ± 0.05 K
[1]; Crystal 2
  Triple point temperature: 88.1 ± 0.3 K
[2]; Crystal 1
  Molar enthalpy of transition or fusion: 1.243 ± 0.0112 kcal/mol
[2]; Crystal 2
  Molar enthalpy of transition or fusion: 0.0406 ± 0.011 kcal/mol
